Assay results taken from patent US20140162980A1, “NOVEL MICROBIOCIDAL DIOXIME ETHER DERIVATIVES” (SYNGENTA CROP PROTECTION LLC, priority 2010, published 2014).

What was measured:
Phytophthora infestans = assay: whole plant or invertebrate; type: in vivo; conditions: in Solanum lycopersicum, foliar, read-out: control of Phytophthora infestans (percent disease control compared to untreated)
[1] = tested on: Blumeria graminis f. sp. tritici (Erysiphe graminis f. sp. tritici); assay: Blumeria graminis f. sp. tritici / wheat / leaf disc preventative (powdery mildew on wheat); type: in vivo; conditions: foliar, wheat leaf segments cv. Kanzler, inoculated 1 day after application, assessed 6-8 days after application, read-out: control of Blumeria graminis (percent disease control compared to untreated)
Experimental: Blumeria Graminis f. Sp. Tritici (Erysiphe Graminis f. Sp. Tritici)/Wheat/Leaf Disc Preventative (Powdery Mildew on Wheat):
Wheat leaf segments cv. Kanzler were placed on agar in a 24-well plate and sprayed with the formulated test compound diluted in water at an application rate of 200 ppm. The leaf disks were inoculated by shaking powdery mildew infected plants above the test plates 1 day after application. The inoculated leaf disks were incubated at 20° C. and 60% relative humidity under a light regime of 24 h darkness followed by 12 h/12 h (dark/light) in a climate chamber and the activity of a compound was assessed as percent disease control compared to untreated when an appropriate level of disease damage appears on untreated check leaf segments (6-8 days after application). The following compounds gave at least 80% control of Blumeria graminis: […]

[2] = tested on: Puccinia recondita f. sp. tritici; assay: Puccinia recondita f. sp. tritici / wheat / leaf disc preventative (brown rust); type: in vivo; conditions: foliar, wheat leaf segments cv Kanzler, inoculated 1 day after application, assessed 7-9 days after application, read-out: control of Puccinia recondita f. sp. tritici, preventative (percent disease control compared to untreated)
Experimental: Puccinia Recondita f. Sp. Tritici/Wheat/Leaf Disc Preventative (Brown Rust): Wheat leaf segments cultivated variety (cv) Kanzler were placed on agar in 24-well plates and sprayed with formulated test compound diluted in water at an application rate of 200 ppm. The leaf disks were inoculated with a spore suspension of the fungus 1 day after application. The inoculated leaf segments were incubated at 19° C. and 75% relative humidity under a light regime of 12/12 h (light/dark) in a climate cabinet and the activity of a compound was assessed as percent disease control compared to untreated when an appropriate level of disease damage appears in untreated check leaf segments (7-9 days after application).

[3] = tested on: Magnaporthe grisea (Pyricularia oryzae); assay: whole plant or invertebrate; type: in vivo; conditions: foliar, read-out: control of Magnaporthe grisea (percent disease control compared to untreated)
[4] = tested on: Phaeosphaeria nodorum (Septoria nodorum); assay: Phaeosphaeria nodorum (Septoria nodorum) / wheat / leaf disc preventative (glume blotch); type: in vivo; conditions: Parastagonospora nodorum, foliar, wheat leaf segments cv Kanzler, inoculated 2 days after application, assessed 5-7 days after application, read-out: control of Phaeosphaeria nodorum (percent disease control compared to untreated)
Experimental: Phaeosphaeria Nodorum (Septoria nodorum)/Wheat/Leaf Disc Preventative (Glume Blotch): Wheat leaf segments cv Kanzler were placed on agar in a 24-well plate and sprayed with formulated test compound diluted in water at an application rate of 200 ppm. The leaf disks are inoculated with a spore suspension of the fungus 2 days after application. The inoculated test leaf disks are incubated at 20° C. and 75% relative humidity under a light regime of 12/12 h (light/dark) in a climate cabinet and the activity of a compound is assessed as percent disease control compared to untreated when an appropriate level of disease damage appears in untreated check leaf disks (5-7 days after application).

Pyrenophora teres = Pyrenophora teres / barley / leaf disc preventative (net blotch); type: in vivo; conditions: foliar, barley leaf segments cv Hasso, inoculated two days after application, assessed 5-7 days after application, read-out: control of Pyrenophora teres (disease control compared to untreated)
Experimental: Pyrenophora Teres/Barley/Leaf Disc Preventative (Net Blotch): Barley leaf segments cv Hasso are placed on agar in a 24-well plate and sprayed with formulated test compound diluted in water at an application rate of 200 ppm. The leaf segments are inoculated with a spore suspension of the fungus two days after application of the test solution. The inoculated leaf segments are incubated at 20° C. and 65% relative humidity under a light regime of 12/12 h (light/dark) in a climate cabinet and the activity of a compound is assessed as disease control compared to untreated when an appropriate level of disease damage appears in untreated check leaf segments (5-7 days after application).

Pythium ultimum = Pythium ultimum / liquid culture (seedling damping off); type: cell-based; conditions: Globisporangium ultimum, PDB potato dextrose broth, 24° C., 2-3 days after application, read-out: control of Pythium ultimum (inhibition of growth, photometrically)
Experimental: Pythium Ultimum/Liquid Culture (Seedling Damping Off): Mycelia fragments and oospores of a newly grown liquid culture of the fungus were directly mixed into nutrient broth (PDB potato dextrose broth). After placing a DMSO solution of test compound into a 96 well microtiter plate at an application rate 200 ppm, the nutrient broth containing the fungal mycelia/spore mixture was added. The test plates were incubated at 24° C. and the inhibition of growth was determined photometrically 2-3 days after application.

[5] = tested on: Botryotinia fuckeliana (Botrytis cinerea); assay: Botryotinia fuckeliana (Botrytis cinerea) / liquid culture (gray mould); type: cell-based; conditions: Vogels broth, 24° C., 3-4 days after application, read-out: control of Botryotinia fuckeliana (inhibition of growth, photometrically)
Experimental: Botryotinia Fuckeliana (Botrytis cinerea)/Liquid Culture (Gray Mould): Conidia of the fungus from cryogenic storage were directly mixed into nutrient broth (Vogels broth). After placing a DMSO solution of test compound into a 96-well microtiter plate at an application rate 200 ppm, the nutrient broth containing the fungal spores was added. The test plates were incubated at 24° C. and the inhibition of growth was determined photometrically 3-4 days after application.

[6] = tested on: Thanatephorus cucumeris (Rhizoctonia solani); assay: Thanatephorus cucumeris (Rhizoctonia solani) / liquid culture (foot rot, damping-off); type: cell-based; conditions: PDB potato dextrose broth, 24° C., 3-4 days after application, read-out: control of Thanatephorus cucumeris (inhibition of growth, photometrically)
Experimental: Thanatephorus Cucumeris (Rhizoctonia solani)/Liquid Culture (Foot Rot, Damping-Off): Mycelia fragments of a newly grown liquid culture of the fungus are directly mixed into nutrient broth (PDB potato dextrose broth). After placing a DMSO solution of the test compounds into a 96-well microtiter plate at an application rate 200 ppm, the nutrient broth containing the fungal material was added. The test plates were incubated at 24° C. and the inhibition of growth was determined photometrically 3-4 days after application.

Sclerotinia sclerotiorum = Sclerotinia sclerotiorum / liquid culture (cottony rot); type: cell-based; conditions: PDB potato dextrose broth, 24° C., 3-4 days after application, read-out: control of Sclerotinia sclerotiorum (inhibition of growth, photometrically)
Experimental: Sclerotinia Sclerotiorum/Liquid Culture (Cottony Rot) Mycelia fragments of a newly grown liquid culture of the fungus are directly mixed into nutrient broth (PDB potato dextrose broth). After placing a (DMSO) solution of test compound into a microtiter plate at an application rate 200 ppm (96-well format) the nutrient broth containing the fungal material is added. The test plates are incubated at 24° C. and the inhibition of growth is determined photometrically 3-4 days after application.

Plasmopara viticola = assay: whole plant or invertebrate; type: in vivo; conditions: foliar, read-out: control of Plasmopara viticola (percent disease control compared to untreated)
[7] = tested on: Puccinia recondita f. sp. tritici; assay: Puccinia recondita f. sp. tritici / wheat / leaf disc curative (brown rust); type: in vivo; conditions: foliar, 200 ppm applied 1 day after inoculation, wheat leaf segments cv Kanzler, assessed 6-8 days after application, read-out: control of Puccinia recondita f. sp. tritici, curative (percent disease control compared to untreated)
Experimental: Puccinia Recondita f. Sp. Tritici/Wheat/Leaf Disc Curative (Brown Rust): Wheat leaf segments cv Kanzler were placed on agar in 24-well plates. The leaf segments were inoculated with a spore suspension of the fungus. The plates were stored in darkness at 19° C. and 75% relative humidity. The formulated test compound diluted in water was applied at an application rate of 200 ppm 1 day after inoculation.

Alternaria solani = Alternaria solani / tomato / leaf disc (early blight); type: in vivo; conditions: foliar, tomato leaf disks cv. Baby, inoculated 2 days after application, assessed 5-7 days after application, read-out: control of Alternaria solani (percent disease control compared to untreated)
Experimental: Alternaria Solani/Tomato/Leaf Disc (Early Blight): Tomato leaf disks cv. Baby are placed on agar in multiwell plates (24-well format) and sprayed with the formulated test compound diluted in water at an application rate of 200 ppm. The leaf disks are inoculated with a spore suspension of the fungus 2 days after application. The inoculated leaf disks are incubated at 23° C./21° C.

Row | Compound | pest or weed control at 200 ppm (Phytophthora infestans) [%] | pest or weed control at 200 ppm [1] [%] | pest or weed control at 200 ppm [2] [%] | pest or weed control at 200 ppm [3] [%] | pest or weed control at 200 ppm [4] [%] | pest or weed control at 200 ppm (Pyrenophora teres) [%] | inhibition at 200 ppm (Pythium ultimum) [%] | inhibition at 200 ppm [5] [%] | inhibition at 200 ppm [6] [%] | inhibition at 200 ppm (Sclerotinia sclerotiorum) [%] | pest or weed control at 200 ppm (Plasmopara viticola) [%] | pest or weed control at 200 ppm [7] [%] | pest or weed control at 200 ppm (Alternaria solani) [%] | melting point [°C]
1 | c1c2c(nc3c1CCC/C3=N\OCCCO/N=C1\CCCc3cc4c(nc31)CCCC4)CCCC2 [P.51] | ≥ 80 | ≥ 80 | ≥ 80 | ≥ 80 | ≥ 80 | ≥ 80 | ≥ 80 | ≥ 80 | ≥ 80 | ≥ 80 | – | – | – | –
2 | Cc1ccc2c(n1)/C(=N/OCCCO/N=C1\CCCc3c1nc1ccccc1c3C)CCC2 [P.37] | – | ≥ 80 | ≥ 80 | ≥ 80 | ≥ 80 | ≥ 80 | ≥ 80 | ≥ 80 | ≥ 80 | ≥ 80 | ≥ 80 | ≥ 80 | ≥ 80 | –
3 | Clc1ccc2c(n1)/C(=N/OCC1(CO/N=C3\CCc4ccc(Cl)nc43)CC1)CC2 [P.21] | – | – | – | – | – | – | – | – | – | – | – | – | – | 170 to 173
4 | Cc1ccc2c(n1)/C(=N/OCC(C)(C)CO/N=C1\CCCc3c(CF)cc(C)nc31)CCC2 [P.44] | – | ≥ 80 | ≥ 80 | ≥ 80 | ≥ 80 | ≥ 80 | ≥ 80 | ≥ 80 | – | ≥ 80 | – | ≥ 80 | – | –
5 | Cc1ccc2c(n1)/C(=N/OCCCO/N=C1\CCCc3cc4c(nc31)CCCC4)CCC2 [P.39] | ≥ 80 | ≥ 80 | ≥ 80 | ≥ 80 | ≥ 80 | ≥ 80 | ≥ 80 | ≥ 80 | ≥ 80 | ≥ 80 | ≥ 80 | ≥ 80 | ≥ 80 | –
6 | c1c2c(nc3c1CCC/C3=N\OCC1(CO/N=C3\CCCc4cc5c(nc43)CCCC5)CC1)CCCC2 [P.49] | ≥ 80 | ≥ 80 | ≥ 80 | ≥ 80 | ≥ 80 | – | – | ≥ 80 | ≥ 80 | ≥ 80 | – | – | – | –
7 | Cc1ccc2c(n1)/C(=N/OCC(C)(C)CO/N=C1\CCCc3c1nc1ccccc1c3C)CCC2 [P.38] | ≥ 80 | ≥ 80 | ≥ 80 | ≥ 80 | ≥ 80 | ≥ 80 | ≥ 80 | ≥ 80 | ≥ 80 | ≥ 80 | ≥ 80 | ≥ 80 | ≥ 80 | –
8 | Cc1ccc2c(n1)/C(=N/OCC(C)(C)CO/N=C1\CCCc3cc4c(nc31)CCCC4)CCC2 [P.40] | ≥ 80 | ≥ 80 | ≥ 80 | ≥ 80 | ≥ 80 | ≥ 80 | ≥ 80 | ≥ 80 | ≥ 80 | ≥ 80 | ≥ 80 | ≥ 80 | ≥ 80 | –
9 | c1ccc(-c2c3c(nc4ccccc24)/C(=N/OCCCO/N=C2\CCCc4c2nc2ccccc2c4-c2ccccc2)CCC3)cc1 [P.26] | – | – | – | – | – | – | – | – | – | – | – | – | – | 205 to 210
